EC50 and Ki data for nine compounds are collected here from patent US9346815B2, “5-chloro-2-difluoromethoxyphenyl pyrazolopyrimidine compounds, compositions and methods of use thereof” (Genentech, Inc., priority 2014, dated 2016).

Experiment [1] deals with JAK1-dependent STAT6 phosphorylation downstream of IL-13 stimulation in BEAS-2B human bronchial epithelial cells. Kind of experiment: JAK1 pathway assay in BEAS-2B cells (IL-13-pSTAT6, MSD). The class given is cell-based. To be noted: read-out: IL13-pSTAT6 EC50 (uM)_BEAS-2B. A digest of the protocol:
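Inhibitors were added to TF-1 cells (GM-CSF-starved, serum-free) for 30 min or to BEAS-2B cells (complete medium) for 1 hr at 37° C. MSD detected pSTAT6.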

In experiment [2] the target is isolated recombinant JAK1 kinase domain (Homo sapiens (Human), UniProt P23458). In words: JAK1 enzyme assay (Caliper LabChip, peptide phosphorylation). The class given is biochemical.
The target of experiment [3] is isolated recombinant JAK2 kinase domain (Homo sapiens (Human), UniProt O60674). Kind of experiment: JAK2 enzyme assay (Caliper LabChip, peptide phosphorylation). In kind it is biochemical. To be noted: 25 μM ATP.
The mark [4] stands for this setting: isolated recombinant JAK1 kinase domain, 25 μM ATP.

The structures appear in SMILES notation. Counter-ions that a name gives are not always drawn. Like-named read-outs stand apart in the source and are kept apart here.

Sequence of isolated recombinant JAK1 kinase domain (P23458 875-1153): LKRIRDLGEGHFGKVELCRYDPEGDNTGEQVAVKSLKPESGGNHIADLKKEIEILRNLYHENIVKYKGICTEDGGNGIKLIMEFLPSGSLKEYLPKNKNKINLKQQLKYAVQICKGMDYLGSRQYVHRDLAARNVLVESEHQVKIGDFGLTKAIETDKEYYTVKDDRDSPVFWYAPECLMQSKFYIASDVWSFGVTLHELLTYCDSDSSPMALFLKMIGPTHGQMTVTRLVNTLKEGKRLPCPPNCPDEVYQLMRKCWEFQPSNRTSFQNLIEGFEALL
Sequence of isolated recombinant JAK2 kinase domain (O60674 849-1124): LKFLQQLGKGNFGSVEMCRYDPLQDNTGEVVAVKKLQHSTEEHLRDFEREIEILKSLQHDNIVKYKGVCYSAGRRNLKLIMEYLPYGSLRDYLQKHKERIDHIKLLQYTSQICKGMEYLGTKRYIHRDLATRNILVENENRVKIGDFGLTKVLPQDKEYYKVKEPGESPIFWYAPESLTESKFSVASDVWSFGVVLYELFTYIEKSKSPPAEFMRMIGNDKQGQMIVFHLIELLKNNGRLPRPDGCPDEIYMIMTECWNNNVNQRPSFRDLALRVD

Turning to `COC(=O)CN1CCN(C(=O)Cn2cc(NC(=O)c3cnn4cccnc34)c(-c3cc(Cl)ccc3OC(F)F)n2)CC1` [Example 322, methyl 2-[4-(2-[3-[5-chloro-2-(difluoromethoxy)phenyl]-4-[pyrazolo[1,5-a]pyrimidine-3-amido]-1H-pyrazol-1-yl]acetyl)piperazin-1-yl]acetate], the EC50 (in general, the concentration at which the effect is half-maximal) in experiment [1] was found to be 0.0411 µM. The inhibitory constant (Ki) – broadly, the dissociation constant of the complex between target and ligand, obtained from inhibition or displacement – in experiment [2] (setting [4]) stood at 0.31 nM; in experiment [3] it was 0.8 nM.

Consider `O=C1CCC(Cn2cc(NC(=O)c3cnn4cccnc34)c(-c3cc(Cl)ccc3OC(F)F)n2)O1` (stereo not drawn) [Example 323], for which, in experiment [1], the EC50 was found to be 0.0209 µM. Moreover, the results for the Ki in experiment [2] (setting [4]) and in experiment [3] were 0.68 nM and 0.33 nM, respectively.

In the case of `O=C(Nc1cn(CC(=O)N2CCNCC2)nc1-c1cc(Cl)ccc1OC(F)F)c1cnn2cccnc12` [Example 324, N-[3-[5-chloro-2-(difluoromethoxy)phenyl]-1-[2-oxo-2-(piperazin-1-yl)ethyl]-1H-pyrazol-4-yl]pyrazolo[1,5-a]pyrimidine-3-carboxamide], in experiment [1], the EC50 worked out at 0.0566 µM. Besides, the values for the inhibition constant Ki in experiment [2] (setting [4]) and in experiment [3] were 0.95 nM and 1.61 nM, respectively.

For `CN(C)C(=O)CN1CCN(C(=O)Cn2cc(NC(=O)c3cnn4cccnc34)c(-c3cc(Cl)ccc3OC(F)F)n2)CC1` [Example 325, N-[3-[5-chloro-2-(difluoromethoxy)phenyl]-1-(2-[4-[(dimethylcarbamoyl)methyl]piperazin-1-yl]-2-oxoethyl)-1H-pyrazol-4-yl]pyrazolo[1,5-a]pyrimidine-3-carboxamide], in experiment [1], the EC50 amounted to 0.0651 µM. In addition, the results for the Ki in experiment [2] (setting [4]) and in experiment [3] were 0.41 nM and 1.03 nM, respectively.

As to `O=C(Nc1cn(CCNCc2ccccc2O)nc1-c1cc(Cl)ccc1OC(F)F)c1cnn2cccnc12` [Example 326, N-[3-[5-chloro-2-(difluoromethoxy)phenyl]-1-(2-[[(2-hydroxyphenyl)methyl]amino]ethyl)-1H-pyrazol-4-yl]pyrazolo[1,5-a]pyrimidine-3-carboxamide], in experiment [1], the 50% effective concentration (EC50) is 0.007 µM. For the same compound, the Ki was determined as 0.21 nM in experiment [2] (setting [4]) and 0.28 nM in experiment [3].

For the compound `O=C(Nc1cn(CCNCc2cccc(O)c2)nc1-c1cc(Cl)ccc1OC(F)F)c1cnn2cccnc12` [Example 327, N-[3-[5-chloro-2-(difluoromethoxy)phenyl]-1-(2-[[(3-hydroxyphenyl)methyl]amino]ethyl)-1H-pyrazol-4-yl]pyrazolo[1,5-a]pyrimidine-3-carboxamide], the 50% effective concentration (EC50) in experiment [1] turned out to be 0.0077 µM. The results for the inhibitory constant (Ki) in experiment [2] (setting [4]) and in experiment [3] were 0.25 nM and 0.2 nM, respectively.

With `O=C(Nc1cn(CCNCc2ccc(O)cc2)nc1-c1cc(Cl)ccc1OC(F)F)c1cnn2cccnc12` [Example 328, N-[3-[5-chloro-2-(difluoromethoxy)phenyl]-1-(2-[[(4-hydroxyphenyl)methyl]amino]ethyl)-1H-pyrazol-4-yl]pyrazolo[1,5-a]pyrimidine-3-carboxamide], the EC50 in experiment [1] was 0.0102 µM. Besides, the figures for the Ki in experiment [2] (setting [4]) and in experiment [3] were 0.21 nM and 0.23 nM, respectively.

Regarding `COC(=O)CNC1CCN(C(=O)Cn2cc(NC(=O)c3cnn4cccnc34)c(-c3cc(Cl)ccc3OC(F)F)n2)CC1` [Example 329, methyl 2-[[1-(2-[3-[5-chloro-2-(difluoromethoxy)phenyl]-4-[pyrazolo[1,5-a]pyrimidine-3-amido]-1H-pyrazol-1-yl]acetyl)piperidin-4-yl]amino]acetate formate], the half-maximal effective concentration (EC50) in experiment [1] is 0.0115 µM. Moreover, the inhibition constant (Ki) in experiment [2] came out at 0.3 nM; in experiment [3], 0.76 nM.

Turning to `COC(=O)C1CCN(CCN2CCN(C(=O)Cn3cc(NC(=O)c4cnn5cccnc45)c(-c4cc(Cl)ccc4OC(F)F)n3)CC2)CC1` [Example 333, methyl1-[2-[4-(2-[3-[5-chloro-2-(difluoromethoxy)phenyl]-4-[pyrazolo[1,5-a]pyrimidine-3-amido]-1H-pyrazol-1-yl]acetyl)piperazin-1-yl]ethyl]piperidine-4-carboxylate], in experiment [1], the half-maximal effective concentration (EC50) came to 0.0065 µM. The Ki in experiment [2] (setting [4]) amounted to 0.69 nM; in experiment [3], 1.96 nM.
